Drawing on EP0062321A2, “New cephem compounds, processes for their preparation, pharmaceutical compositions containing them and their starting compounds” (FUJISAWA PHARMACEUTICAL CO., LTD., priority 1981, dated 1982), this text covers MIC for three compounds.

For one experiment, the system named is Pr.vulgaris IAM-1025. As to the kind of experiment: Minimal inhibitory concentration (MIC) by agar dilution on heart infusion agar. It counts as cell-based. The following applies: Proteus vulgaris, IAM1025, HI-agar, one loopful of overnight culture in Trypticase-soy broth (10 viable cells per ml), 37°C for 20 hours. As for the experimental part:
(§1) Now in order to show the utility of the object compounds (I), test data on anti-microbial activity of representative compounds of the present invention are shown below.
(§2) One loopful of an overnight culture of each test strain in Trypticase-soy broth (10 viable cells per ml,) was streaked on heart infusion agar (HI-agar) containing graded concentrations of antibiotics, and the minimal inhibitory concentration (MIC) was expressed in terms of µg/ml after incubation at 37°C for 20 hours.

A further experiment relates to Pr.mirabilis 140. Described as above. The following applies: Proteus mirabilis, HI-agar, one loopful of overnight culture in Trypticase-soy broth (10 viable cells per ml), 37°C for 20 hours. The format is cell-based. Here is the method: as §1, §2

In brackets after ≈: the same amount, converted by molar mass.

In general, MIC refers to the smallest concentration in the dilution series that meets the test's criterion for growth inhibition. Regarding `CCO/N=C(\C(=O)NC1C(=O)N2C(C(=O)[O-])=C(C[n+]3ccccn3)CSC12)c1nsc(N)n1` (stereo not drawn) [(2)], the MIC in the experiment on Pr.vulgaris IAM-1025 and against Pr.mirabilis 140 was 0.39 µg/mL (≈ 0.795 µM) each time.
Turning to `CCO/N=C(\C(=O)NC1C(=O)N2C(C(=O)[O-])=C(C[n+]3cccn3C)CSC12)c1nsc(N)n1` (stereo not drawn) [(1)], the MIC was 0.78 µg/mL (≈ 1.58 µM) in the experiment with Pr.vulgaris IAM-1025 and 0.39 µg/mL (≈ 0.792 µM) against Pr.mirabilis 140.
On the same counts, the results for `CO/N=C(\C(=O)NC1C(=O)N2C(C(=O)[O-])=C(C[n+]3ccccn3)CSC12)c1nsc(N)n1` (stereo not drawn) [(3)] are 6.25 µg/mL (≈ 13.1 µM) and 0.39 µg/mL (≈ 0.818 µM).
